Results from patent publication US20090074815A1, “Immunomodulator Compounds as Vaccine Enhancers” (SCICLONE PHARMACEUTICALS, INC., priority 2005, published 2009).
Read-outs that look alike come from different tables or passages of the source.

Legend:
thymic cells = test: Expression of T-cell subpopulation and activation markers (CD69, CD25) on thymic cells, flow cytometry; type: in vivo, mice; settings: for CD25-positive cells, % / CD69-positive, %: thymic cells cultured in vitro 48 hours
Text: Materials and Methods: Eighteen (18) to twenty (20) gram (g) male mice, purchased from the Rappolovo Animal Facility, Russia, were used in the studies described below. C57BL/6 (B6) mice were used to evaluate the effect of SCV-07 in non-immunized mice. CBAxC57BL/6 (F1) mice were used for studies of the effects of SCV-07 on the antigen-specific immune response. Mice were kept under the standard animal facility conditions and were provided with a standard diet and water ad libitum. Each treatment group included 4-5 mice. […] Analysis by Flow Cytometry: […] The expression of T-cell subpopulation markers (CD3, CD4, and CD8) and activation markers (CD69 and CD25) on thymic cells and splenocytes was studied ex vivo 72 hours after the last treatment with SCV-07. […] The expression of the CD69 marker increased after oral administration of SCV-07 tablets at doses of 0.1 and 1.0 μg/kg of body mass as well as after i/p administration at a dose of 1.0 μg/kg.

[1] = Clinical manifestations of infectious syndrome (ARVI, ENT diseases, herpes, gastrointestinal, urogenital) after vaccination with SCV-07; type: in vivo, human
Text: The protocol of the placebo-controlled, randomized study of the efficacy of vaccination against viral hepatitis B was approved by the committee of ethics of the Chelyabinsk State Medical Academy. […] Diagnosis of the infectious syndrome was made in accordance with the standards of diagnostics and treatment of secondary immunodeficiencies recommended by the institute of Immunology of the Ministry of Public Health of the RF, Moscow. (R. M. Kahaitov, N. I. Iljina, L. V. and Luss et al., 2002) All subjects gave their personal consent to participate in the study and submitted a signed informed consent form.
Data on the incidence of episodes and relapses of chronic diseases for each immunocompromised subject were recorded during pre- and post vaccination periods and used to compare the immunological clinical parameters of each subject in the pre- and post vaccination periods. Chronic diseases that were tracked included diseases of the ears, nose and throat, urinary systems, genital systems and gastrointestinal tract, and diseases of the skin, hair and nails (the integumentary tissues).
Participants in the study had the following clinical manifestations of infectious syndrome: sixty-seven percent (67%) had acute respiratory viral infections (ARVI) more than four times a year; forty-nine percent (49%) had chronic inflammatory diseases of the ears, nose and throat; forty-five percent (45%) suffered from recurrent herpes viral infections; thirty percent (30%) had chronic inflammatory diseases of the gastrointestinal tract; thirty-three (33%) had recurrent infections of the skin and subcutaneous adipose cellular tissues. Study participants with the spontaneous form of secondary immunodeficiency typically had more than one chronic inflammatory disease. Seventy-one percent (71%) of the subjects with infectious syndrome had three or more different clinical manifestations of a chronic inflammatory disease. Subjects with a single clinical manifestation made up only three percent (3%) of Groups I and II.

[2] = Indices of humoral immunity (CD20+, IgA, IgM, IgG, CH50, circulating immune complexes) before and after vaccination; settings: patients with infectious syndrome, hepatitis B vaccination with SCV-07, after vaccination, n = 16, M ± m
Protocol: This group, which received SCV-07 and hepatitis B vaccine, included thirty-three (33) essentially healthy students from the Chelyabinsk State Medical Academy.
The hepatitis vaccine Engerix-B® produced by SmithKlineBeecham-Biomed (Russia) was administered as a course of 3 doses given at months 0, 1, and 6. Immunological examinations of the subjects were carried out before the first administration of the vaccine and at one month after completion of the course of immunization.
Participants were evaluated to determine levels of leukocytes in peripheral blood, leukocytary formula, the presence of marker specific lymphocytes (CD3, CD4, CD8, CD16, CD95 and CD20), lysosomal activity of neutrophils; oxygen-dependent metabolism with spontaneous and induced hematocrit (HCT) tests, phagocytary function of neutrophils according to the latex particle absorption model; immunoglobulin IgA, IgM, IgG concentrations; total hemolytic activity of complement (CH50) in blood serum and for circulating immune complexes. […] A concentration of 10 MU/liter (l) was assumed to be a protective hepatitis B titer.
The immunomodulator SCV-07 was administered at the same time as the hepatitis B vaccine to determine if SCV-07 increased the efficacy of vaccination and to determine if it would correct the immunity disorders of subjects with infectious syndrome. A one milligram (1 mg) dose of SCV-07 was administered as an intra muscular injection to the 32 subjects of Group 2 of the study on days one to five, where day one was the day the first dose of the hepatitis B vaccine was administered. One (1) mg of SCV-07 was also administered with the second and third doses of vaccine one month and 6 months following administration of the initial vaccine dose. Study participants in Group I received injections of physiological saline which were administered on the same schedule as the SCV-07 to provide a placebo control group.

neutrophils = test: Concentration and functional activity of neutrophils (phagocytosis, lysosomal activity, spontaneous and induced HCT test) before and after vaccination; type: in vivo, human
[3] = system: IL-12R40 production by OvA-stimulated splenocytes; test: OvA-stimulated production of IL-12R40 by splenocytes of OvA-immunized mice; settings: for activity at 0.0001 mg/kg / activity at 0.001 mg/kg / activity at 0.01 mg/kg: Mus musculus, Splenocyte, po, read-out: Production of IL-12R40 by splenocytes, % (% of control), OvA/FA; for Production of IL-12R40 by splenocytes / Production of IL-12R40 by splenocytes, % (% of control): OvA/FA
Protocol: The OvA was administered subcutaneously to the crest in a volume of 200 μl. Mice were immunized on day 1 with OvA in complete Freund's adjuvant (CFA; Sigma) and on day 15 with the antigen in incomplete Freund's adjuvant (IFA; Sigma). The immune response was analyzed on day 29. Mice were also immunized with 10 μg/mouse of OvA using Alum as an adjuvant.
Thymuses and spleens from mice of each treatment group were pooled, and then minced with scissors. The minced tissues were suspended in sterile PBS to form cell suspensions, filtered through a double gauze layer and centrifuged. Cells were washed twice with PBS, re-suspended in RPMI-1640 (Sigma) with 2.0 mM of L-glutamine, 50 μM of mercaptoethanol, and 10 μg/ml of gentamycin (complete medium); and cell counts were made. (The splenocyte suspension was washed with a 0.86% solution of NH4Cl to pre-lyse erthrocytes.)
Assessment of Mitogen- and Antigen-Induced Production of Cytokines: Thymic cells (1×10^6/well) in complete medium with 2% FCS were stimulated with ConA (0, 1, and 2 μg/ml). Splenocytes (1×10^6/well) in complete medium with 5% FCS were stimulated with ConA (0, 1, and 5 μg/ml) and with OvA (0-100 μg/ml). […] Supernatants from OvA-stimulated cultures were collected after 72 hours. Supernatants from both cultures were frozen, and kept at 20° C. Concentrations of IL-2, IL-4, IL-10, IL-12R40 and IFNγ in the supernatants were determined by solid-phase EIA with EIA Expansion Kits, available from BD Biosciences (formerly Pharmingen), in accordance with the manufacturer's instructions.

[4] = Group 2 (patients with infectious syndrome, hepatitis B vaccination with SCV-07), after vaccination, n = 16, M ± m
[5] = 0.1 μg/kg per os, OvA 100 μg/ml
[6] = 1.0 μg/kg per os, OvA 100 μg/ml
[7] = 10.0 μg/kg per os, OvA 10 μg/ml
[8] = 10.0 μg/kg per os, OvA 25 μg/ml
[9] = 10.0 μg/kg per os, OvA 50 μg/ml
[10] = 10.0 μg/kg per os, OvA 100 μg/ml

N[C@H](CCC(=O)N[C@@H](Cc1c[nH]c2ccccc12)C(=O)O)C(=O)O [SCV-07, γ-D-glutamyl-L-tryptophan]
subpopulation composition of T-cells and expression of their activation markers (thymic cells; thymic cells and splenocytes ex vivo 72 hours after the last treatment, i/p or per os, data not shown): No significant differences | CD25-positive cells, % (thymic cells; 0.1 μg/kg Tablet, per os): 0.7% | CD69-positive, % (thymic cells; 0.1 μg/kg Tablet, per os): 3.35% | CD25-positive cells, % (thymic cells; 0.1 μg/kg i/p): 0.30% | CD69-positive, % (thymic cells; 0.1 μg/kg i/p): 2.03% | CD25-positive cells, % (thymic cells; 1.0 μg/kg Tablet, per os): 0.79% | CD69-positive, % (thymic cells; 1.0 μg/kg Tablet, per os): 4.61% | CD25-positive cells, % (thymic cells; 1.0 μg/kg i/p): 1.72% | CD69-positive, % (thymic cells; 1.0 μg/kg i/p): 7.86% | CD25-positive cells, % (thymic cells; 10.0 μg/kg Tablet, per os): 0.71% | CD69-positive, % (thymic cells; 10.0 μg/kg Tablet, per os): 2.24% | participants reporting herpes outbreaks one to two times during a year ([1]; after vaccination and SCV-07 (13% before)): 53% | participants with herpes infections five times a year or more ([1]; after vaccination and SCV-07 administration (40% before)): no participants | incidence of ARVI ([1]; subjects who previously reported ARVI between 5 and 9 times a year, vaccine + SCV-07): sharply reduced | participants without episodes or outbreaks of herpes ([1]; vaccinated and received SCV-07): Thirty-four | subjects with aggravated chronic ENT diseases three to four times a year who had no aggravated incidents during the first year after vaccination ([1]; vaccinated participants that received SCV-07): 35% | frequency of chronic diseases of the gastrointestinal tract and the urogenital system ([1]; vaccinated participants with infectious syndrome that received SCV-07): did not change | CD20+ % [2]: 15.93 ± 1.20% | CH50, conv. units [2]: 64.53 ± 4.11 conv. units | CIC, conv. units [2]: 53.93 ± 8.03 conv. units | IgA [2]: 1.821 ± 0.087 g/L | IgG [2]: 8.931 ± 0.481 g/L | IgM [2]: 1.179 ± 0.089 g/L | Activity of phagocytosis % (neutrophils; [4]): 46.88 ± 4.92% | Functional reserve, conv. units (neutrophils; [4]): 1.929 ± 0.225 conv. units | Induced HCT-test, activity, % (neutrophils; [4]): 48.63 ± 4.62% | Induced HCT-test, index, conv. units (neutrophils; [4]): 0.732 ± 0.08 conv. units | Intensity of phagocytosis, conv. units (neutrophils; [4]): 1.44 ± 0.189 conv. units | Lysosomal activity, conv. units (neutrophils; [4]): 198.7 ± 22.5 conv. units | Neutrophils % (neutrophils; [4]): 56.56 ± 2.07% | Neutrophils × 10^9/l (neutrophils; [4]): 3.403 ± 0.27 × 10^9/l | Phagocytary number, conv. units (neutrophils; [4]): 2.92 ± 0.255 conv. units | Spontaneous HCT-test, activity, % (neutrophils; [4]): 34.50 ± 5.62% | Spontaneous HCT-test, index, conv. (neutrophils; [4]): 0.50 ± 0.093 conv. | spontaneous activity and intensity of neutrophils in the HCT reaction (neutrophils; immunodeficient subjects with SCV-07 versus vaccine only and versus healthy, p<0.05): significantly lower | activities of neutrophils in the induced HCT test (neutrophils; subjects who received SCV-07 versus vaccinated without immunomodulator, after vaccination, p<0.05): significantly higher | activity at 0.0001 mg/kg ([3]; 0.1 μg/kg per os, OvA 0 μg/ml): 100% | activity at 0.0001 mg/kg ([3]; 0.1 μg/kg per os, OvA 10 μg/ml): 36.6% | activity at 0.0001 mg/kg ([3]; 0.1 μg/kg per os, OvA 25 μg/ml): 24.3% | activity at 0.0001 mg/kg ([3]; 0.1 μg/kg per os, OvA 50 μg/ml): 20.4% | activity at 0.0001 mg/kg [3, 5]: 18.9% | activity at 0.001 mg/kg ([3]; 1.0 μg/kg per os, OvA 0 μg/ml): 100% | activity at 0.001 mg/kg ([3]; 1.0 μg/kg per os, OvA 10 μg/ml): 26.9% | activity at 0.001 mg/kg ([3]; 1.0 μg/kg per os, OvA 25 μg/ml): 23.8% | activity at 0.001 mg/kg ([3]; 1.0 μg/kg per os, OvA 50 μg/ml): 26.5% | activity at 0.001 mg/kg [3, 6]: 25.1% | activity at 0.01 mg/kg ([3]; 10.0 μg/kg per os, OvA 0 μg/ml): 100% | activity at 0.01 mg/kg [3, 7]: 52.9% | activity at 0.01 mg/kg [3, 8]: 40.7% | activity at 0.01 mg/kg [3, 9]: 32.4% | activity at 0.01 mg/kg [3, 10]: 31.9% | OvA-induced production of IL-12r40 by splenocytes versus control ([3]; OvA/Alum, per os or i/p, data not shown): No significant differences | Production of IL-12R40 by splenocytes ([3]; 0.1 μg/kg i/p, OvA 0 μg/ml): 1285.7 pg/mL | Production of IL-12R40 by splenocytes ([3]; 0.1 μg/kg i/p, OvA 10 μg/ml): 492.4 pg/mL | Production of IL-12R40 by splenocytes, % (% of control) ([3]; 0.1 μg/kg i/p, OvA 10 μg/ml): 38.3% | Production of IL-12R40 by splenocytes ([3]; 0.1 μg/kg i/p, OvA 25 μg/ml): 499.6 pg/mL | Production of IL-12R40 by splenocytes, % (% of control) ([3]; 0.1 μg/kg i/p, OvA 25 μg/ml): 38.9% | Production of IL-12R40 by splenocytes ([3]; 0.1 μg/kg i/p, OvA 50 μg/ml): 420.8 pg/mL | Production of IL-12R40 by splenocytes, % (% of control) ([3]; 0.1 μg/kg i/p, OvA 50 μg/ml): 32.7% | Production of IL-12R40 by splenocytes ([3]; 0.1 μg/kg i/p, OvA 100 μg/ml): 522.8 pg/mL | Production of IL-12R40 by splenocytes ([3]; 0.1 μg/kg per os, OvA 0 μg/ml): 1307.6 pg/mL | Production of IL-12R40 by splenocytes ([3]; 0.1 μg/kg per os, OvA 10 μg/ml): 478.1 pg/mL | Production of IL-12R40 by splenocytes ([3]; 0.1 μg/kg per os, OvA 25 μg/ml): 317.4 pg/mL | Production of IL-12R40 by splenocytes ([3]; 0.1 μg/kg per os, OvA 50 μg/ml): 267.0 pg/mL | Production of IL-12R40 by splenocytes [3, 5]: 246.5 pg/mL | Production of IL-12R40 by splenocytes ([3]; 1.0 μg/kg i/p, OvA 0 μg/ml): 1524.0 pg/mL | Production of IL-12R40 by splenocytes ([3]; 1.0 μg/kg i/p, OvA 10 μg/ml): 933.8 pg/mL | Production of IL-12R40 by splenocytes, % (% of control) ([3]; 1.0 μg/kg i/p, OvA 10 μg/ml): 61.3% | Production of IL-12R40 by splenocytes ([3]; 1.0 μg/kg i/p, OvA 25 μg/ml): 739.7 pg/mL | Production of IL-12R40 by splenocytes, % (% of control) ([3]; 1.0 μg/kg i/p, OvA 25 μg/ml): 48.5% | Production of IL-12R40 by splenocytes ([3]; 1.0 μg/kg i/p, OvA 50 μg/ml): 630.3 pg/mL | Production of IL-12R40 by splenocytes, % (% of control) ([3]; 1.0 μg/kg i/p, OvA 50 μg/ml): 41.4% | Production of IL-12R40 by splenocytes ([3]; 1.0 μg/kg i/p, OvA 100 μg/ml): 616.4 pg/mL | Production of IL-12R40 by splenocytes, % (% of control) ([3]; 1.0 μg/kg i/p, OvA 100 μg/ml): 40.4% | Production of IL-12R40 by splenocytes ([3]; 1.0 μg/kg per os, OvA 0 μg/ml): 1362.3 pg/mL | Production of IL-12R40 by splenocytes ([3]; 1.0 μg/kg per os, OvA 10 μg/ml): 366.3 pg/mL | Production of IL-12R40 by splenocytes ([3]; 1.0 μg/kg per os, OvA 25 μg/ml): 324.5 pg/mL | Production of IL-12R40 by splenocytes ([3]; 1.0 μg/kg per os, OvA 50 μg/ml): 360.8 pg/mL | Production of IL-12R40 by splenocytes [3, 6]: 342.4 pg/mL | Production of IL-12R40 by splenocytes ([3]; 10.0 μg/kg per os, OvA 0 μg/ml): 1455.1 pg/mL | Production of IL-12R40 by splenocytes [3, 7]: 769.3 pg/mL | Production of IL-12R40 by splenocytes [3, 8]: 592 pg/mL | Production of IL-12R40 by splenocytes [3, 9]: 471.9 pg/mL | Production of IL-12R40 by splenocytes [3, 10]: 464.8 pg/mL
